# Experiment: Equilibrium solubility of baicalin in different solvents (excess compound, HPLC)
# Format: physicochemical
# Conditions: for Solubility of Baicalin: excess compound stirred at 40 °C for 2 h, HPLC
# Description: Solubility tests were carried out using distilled water, 70% ethanol and DESs with an excess of the tested compound in a capped bottle and stirred at 40 °C for 2 h. The resulting mixture containing undissolved solid compounds were centrifuged. The supernatant was transferred to a 5 mL-microtube, diluted with methanol and vortexed to a homogeneous solution. The concentration of baicalin in the solution was monitored by HPLC. All solubility tests were performed in triplicate.
structure (smiles),measurement,setting,value
O=C(O)[C@H]1O[C@@H](Oc2cc3oc(-c4ccccc4)cc(=O)c3c(O)c2O)[C@H](O)[C@@H](O)[C@@H]1O [baicalin],solubility thermodynamic at 2 h,"40 °C, organic solvent or mixture, thermodynamic from solid, solvent: DES-1, room temperature",22.7 mg/mL
same,Solubility of Baicalin,solvent: 70% Ethanol,1.85 mg/g
same,Solubility of Baicalin,solvent: DES-1 (ChCl-lactic acid 1:1),22.7 mg/g
same,Solubility of Baicalin,solvent: DES-2 (ChCl-glucose 1:1),18.2 mg/g
same,Solubility of Baicalin,solvent: DES-3 (ChCl-glycerol 1:1),12.35 mg/g
same,Solubility of Baicalin,"solvent: DES-4 (ChCl-1,4-butanediol 1:1)",2.25 mg/g
same,Solubility of Baicalin,solvent: DES-5 (ChCl-ethylene glycol 1:1),17.8 mg/g
same,Solubility of Baicalin,solvent: Water,0.18 mg/g

# Source: publication PMC6321484, “Deep Eutectic Solvent-Based Ultrahigh Pressure Extraction of Baicalin from Scutellaria baicalensis Georgi” (Molecules, 2018)
